For five compounds, Efficacy results are on record in patent US9545105B2, “1-(heterocyclic carbonyl) piperidines” (BAYER INTELLECTUAL PROPERTY GMBH, priority 2010, dated 2017).

Test [1] has as its system Alternaria solani. As to the kind of experiment: In vivo preventive test on Alternaria solani (tomato). Conditions: 500 ppm of active ingredient, evaluated 7 days after inoculation. In outline: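 Young tomato plants were sprayed preventively with compound in DMF/alkylarylpolyglycolether diluted in water, then inoculated one day later with A. solani spores. Incubation was 1 day at about 22 °C and 100% RH, then about 20 °C and 96% RH. Efficacy was scored 7 days after inoculation (0% = untreated control, 100% = no disease).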

The subject of test [2] is Blumeria graminis f. sp. hordei. Put plainly: In vivo preventive test on Blumeria graminis (barley). Conditions: 500 ppm of active ingredient, evaluated 7 days after inoculation. As to the method: (§1) Solvent: 49 parts by weight of N,N-dimethylacetamide Emulsifier: 1 part by weight of alkylaryl polyglycol ether To produce a suitable preparation of active compound, 1 part by weight of active compound or active compound combination is mixed with the stated amounts of solvent and emulsifier, and the concentrate is diluted with water to the desired concentration. To test for preventive activity, young plants are sprayed with the preparation of active compound or active compound combination at the stated rate of application. After the spray coating has been dried, the plants are dusted with spores of Blumeria graminis f. sp. hordei. The plants are placed in the greenhouse at a temperature of approximately 18° C. and a relative atmospheric humidity of approximately 80% to promote the development of mildew pustules. The test is evaluated 7 days after the inoculation. 0% means an efficacy which corresponds to that of the untreated control, while an efficacy of 100% means that no disease is observed.

Test [3] has as its system Leptosphaeria nodorum. Put plainly: In vivo preventive test on Leptosphaeria nodorum (wheat). To be noted: 500 ppm of active ingredient, evaluated 8 days after inoculation. The procedure:
as §1, with “sprayed” for “dusted”, “a spore suspension” for “spores”, “Leptosphaeria nodorum. The plants remain for 48 hours in an incubation cabinet at approximately 20° C. and a relative atmospheric humidity of approximately 100%.” for “Blumeria graminis f. sp. hordei.”, “22°” for “18°”, “80%.” for “80% to promote the development of mildew pustules.”, “8” for “7”

The subject of test [4] is Venturia inaequalis. As to the kind of experiment: In vivo preventive test on Venturia inaequalis (apple scab). Conditions: 100 ppm of active ingredient, evaluated 10 days after inoculation. As to the method:
Solvent: 24.5 parts by weight of acetone • 24.5 parts by weight of N,N-dimethylacetamide Emulsifier: 1 part by weight of alkylaryl polyglycol ether To produce a suitable preparation of active compound, 1 part by weight of active compound is mixed with the stated amounts of solvent and emulsifier, and the concentrate is diluted with water to the desired concentration. To test for preventive activity, young plants are sprayed with the preparation of active compound at the stated rate of application. After the spray coating has dried on, the plants are inoculated with an aqueous conidia suspension of the causal agent of apple scab (Venturia inaequalis) and then remain for 1 day in an incubation cabinet at approximately 20° C. and a relative atmospheric humidity of 100%. The plants are then placed in a greenhouse at approximately 21° C. and a relative atmospheric humidity of approximately 90%. The test is evaluated 10 days after the inoculation. 0% means an efficacy which corresponds to that of the untreated control, while an efficacy of 100% means that no disease is observed.

For test [5], the system named is Phakopsora pachyrhizi. Put plainly: In vivo protective test on Phakopsora pachyrhizi (soybeans). Conditions: 250 ppm of active ingredient, evaluated 11 days after inoculation.

In the case of `Cc1cc(C)cc(C2CCCCN2C(=O)c2c(C)nn(C)c2F)c1` (stereo not drawn) [Example 10], the Efficacy in test [1] is 90%; in test [2], 88%; in test [3] it was 71%; in test [4] it was 100%; in test [5], 98%.
With `CCc1nn(C)c(F)c1C(=O)N1CCCCC1c1cc(C)cc(C)c1` (stereo not drawn) [Example 11], the Efficacy in test [1] is 100%; in test [2], 80%; in test [4], 100%; in test [5], 96%.
As for `CCc1nn(C)c(F)c1C(=O)N1CCCCC1c1ccc(Cl)cc1` (stereo not drawn) [Example 54], the Efficacy in test [1] was 95%; in test [2], 70%; in test [3], 100%; in test [4], 98%.
Taken in the same sequence, the figures for `CCC(c1ccccc1)C1CCCCN1C(=O)c1c(C(F)F)nn(C)c1F` (stereo not drawn) [Example 136] were 100%, 100%, 100% and 100%.
Taken in the same sequence, the figures for `CCC(c1ccccc1)C1CCCCN1C(=S)c1c(C(F)F)nn(C)c1F` (stereo not drawn) [Example 140] were 100%, 100%, 93% and 100%.
